Results on 8 compounds are retold here after US11540516B2, “M-diamide compound and preparation method therefor and use thereof” (priority 2018, dated 2023).

Holding throughout (format): in vivo
One test deals with Chilo suppressalis. Briefly: Indoor bioactivity test against Chilo suppressalis (rice stem dip). The protocol: The leaf dip method was used to assay the insecticidal activity of compounds to strains of Chilo suppressalis. The rice was cultivated in a plastic pot with a diameter of 9 cm and a height of 10 cm. When the rice grew about 25 cm, the aerial part of robust and consistent rice seedlings were selectively cut. Their leaves were removed and their stems of about 8 cm were kept for use. Pour the solution prepared with compound of this invention into the Petri dish (about 40 mL) and immerse the rice stems into the solution for 10 seconds. Take rice stems out and dry them in a cool environment. Put a wet cotton ball at the bottom of finger-like glass tube and 5 rice stems in each tube. Put 10 of 3rd-instar larvae of Chilo suppressa into each tube, which was repeated by 3 times. Seal the tubes with black cotton cloth and tighten them with rubber band. The tubes were placed in a illumination incubator at 28° C. and incubated in the dark. The number of alive Chilo suppressalis and the total number were investigated 3 days after treatment. The mortality was calculated.
According to the above method, Compound 23 and KC2 were selected and parallelly tested against Chilo suppressalis.

The test system of the next test is Plutella xylostella. Briefly: Indoor bioactivity test against Plutella xylostella (leaf dip). The note with it: foliar; for mortality at 0.4 ppm / mortality at 1 ppm: 3rd day after treatment. The protocol: (§1) The leaf dip method was used to assay the insecticidal activity of compounds to strains of Plutella xylostella. Dip the leaf disc into the solution prepared with compound of this invention for 10 seconds, and dry them in a cool environment. Then place them in Petri dish with 4 discs per dish. Put the filter paper into the Petri dish to moisturize it. Put 10 of Plutella xylostella into each dish, which was repeated by 3 times. The dishes were placed in an illumination incubator and incubated at 25° C. with 14 hL: 10 hD illumination. The number of Plutella xylostella death was investigated on the 1st, 2nd and 3rd day after treatment, and the mortality was calculated.
According to the above method, compound 4 and KC1 were selected and parallelly tested against Plutella xylostella to compare their insecticidal activity.

The next test relates to Spodoptera litura. Description: Indoor bioactivity test against Spodoptera litura (leaf dip). The note with it: foliar. The protocol: as §1, with “Spodoptera litura.” for “Plutella xylostella.”, “Spodoptera litura” for “Plutella xylostella”
According to the above method, compound 4, 23 and KC1 were selected and parallelly tested against Spodoptera litura to compare the insecticidal activity.

A further test concerns Mythimna separata. Briefly: Indoor bioactivity test against Mythimna separata (leaf dip). The note with it: foliar, 3rd day after treatment. An excerpt: The leaf dip method was used to assay the insecticidal activity of compounds to strains of Mythimna sepatata. Cut above ground part of fresh maize seedlings, about 10 cm. Dip the maize seedlings into the solution prepared with compound of this invention for 10 seconds and dry them in a cool environment. Then cut the dry maize seedlings into 3˜5 cm leaf sections and put 3 leaf sections into each petri dish. Put ten of 4th-instar larvae of Mythimna separatas into each dish, which was repeated by 3 times. Then the dishes were placed in an illumination incubator and incubated at 25° C. in the dark. Symptoms were investigated on the 1st, 2nd and 3rd day after treatment, and the mortality was calculated.

The test system of test [1] is Spodoptera exigua Hiibner. Briefly: Indoor bioactivity test against Spodoptera exigua Hiibner (leaf dip). As to conditions: foliar, 3rd day after treatment. The protocol:
as §1, with “strains of Spodoptera exigua Hiibner. Dip the” for “strains of Plutella xylostella. Dip the”, “10 of Spodoptera exigua Hiibners into each” for “10 of Plutella xylostella into each”, “number of Spodoptera exigua Hiibner death was” for “number of Plutella xylostella death was”

The test system of the next test is soybean thrips. Briefly: Biological activity on soybean thrips in greenhouse (foliar spray). As to conditions: for mortality at 10 ppm / mortality at 50 ppm: Thrips, foliar; for No. of thrips 1 d / No. of thrips 6 d: foliar spray, 5% SL. The protocol:
Test system: naturally occurring thrips population on soybeans planted in greenhouse. The basic number of active thripses were more than 100 thripses per trifoliate leaf. Under the same conditions, the sensitivity of the thrips population to Spinetoram (dose: 50 mg/L) is 96.55% mortality on the 6th day after treatment.
The size of the plot: 10 m^2, no repetition.
Test formulation: each compound was made into 5% SL (compound 5%+emulsifier 5%+solvent to make up 100%).
(1) Spraying time: both adult and larva thripses were in the active period. The number of spray: 1 time.
(2) Standard for water usage: when dose was in mg/kg, the upper leaves were wet and water began to drop therefrom.
(3) Survey standard: count three single leaves as one leaf. Three leaves were randomly selected and investigated for the number of adult and larva thripses on them.
[…] 2 surveys were conducted.

Setting [2] is: 3rd day after treatment, read-out: mortality of Chilo suppressalis.
The mark [3] stands for this setting: 3rd day after treatment, read-out: mortality of Spodoptera litura.
Where [4] appears, read: 24 h, 1 d, read-out: Mortality (%) 1 d.
[5] abbreviates: 48 h, 2 d, read-out: Mortality (%) 2 d.
Where [6] appears, read: 72 h, 3 d, read-out: Mortality (%) 3 d.
Where [7] appears, read: 24 h, read-out: Mortality % 1 d.
[8] abbreviates: 144 h, read-out: Mortality % 6 d.

Usually mortality stands for the share of the test organisms that died.

Like-named read-outs stand apart in the source and are kept apart here.

`N#Cc1ccc(C(=O)N(CC2CC2)c2cccc(C(=O)Nc3c(Br)cc(C(F)(C(F)(F)F)C(F)(F)F)cc3C(F)(F)F)c2F)cc1` [Compound 23, N-(2-bromo-4-(perfluoropropan-2-yl)-6-(trifluoromethyl)phenyl)-3-(4-cyano-N-(cyclopropylmethyl)benzamido)-2-fluorobenzamide]: the mortality at 5 ppm was no less than 90% in the test with Chilo suppressalis (setting [2]) and 100% in the test on Chilo suppressalis (72 h, 3d, read-out: Mortality (%, 3d) 5 ppm). Also, the mortality at 0.4 ppm is 53.3% with Chilo suppressalis (72 h, 0.4 ppm, 3d); no less than 90% with Plutella xylostella; no less than 90% in the test on Spodoptera litura (setting [3]); 40% in the test on Spodoptera litura (setting [4]); 46.7% in the test with Spodoptera litura (setting [5]); 60% in the test with Spodoptera litura (setting [6]). In addition, the mortality at 1 ppm in the test with Chilo suppressalis (72 h, 1 ppm, 3d) is 93.3%; with Spodoptera litura (setting [4]) it was 93.3%; in the test on Spodoptera litura (setting [5]), 100%; in the test with Spodoptera litura (setting [6]), 100%; in the test with Mythimna separata, no less than 90%; in test [1], 90%. In the test on Chilo suppressalis (72 h, 2 ppm, 3d), this compound came in with a mortality at 2 ppm of 100%.
With `CC(N(C(=O)c1ccc(C#N)cc1)c1cccc(C(=O)Nc2c(Br)cc(C(F)(C(F)(F)F)C(F)(F)F)cc2C(F)(F)F)c1F)C1(Cl)CC1` (stereo not shown) [Compound 75, N-(2-bromo-4-(perfluoropropan-2-yl)-6-(trifluoromethyl)phenyl)-3-(N-(1-(1-chlorocyclopropyl)ethyl)-4-cyanobenzamido)-2-fluorobenzamide], the mortality at 1 ppm with Plutella xylostella and in the test on Mythimna separata was no less than 90% in each case. In addition, the mortality at 10 ppm (with Spodoptera litura (3rd day after treatment); in test [1]) was no less than 90% in each case.
For the compound `CS(=O)(=O)c1ccc(C(=O)N(CC2CC2)c2cccc(C(=O)Nc3c(Br)cc(C(F)(C(F)(F)F)C(F)(F)F)cc3C(F)(F)F)c2F)cc1` [Compound 57, N-(2-bromo-4-(perfluoropropan-2-yl)-6-(trifluoromethyl)phenyl)-3-(N-(cyclopropylmethyl)-4-(methylsulfonyl)benzamido)-2-fluorobenzamide], the mortality at 1 ppm in the test with Plutella xylostella is no less than 90%; in the test with Mythimna separata, no less than 90%; in test [1] it was 90%. The compound further yielded a mortality at 10 ppm with Spodoptera litura (3rd day after treatment) of no less than 90%.
Regarding `O=C(Nc1c(Br)cc(C(F)(C(F)(F)F)C(F)(F)F)cc1C(F)(F)F)c1cccc(N(CC2CC2)C(=O)c2ccc(F)cc2)c1F` [Compound 62, N-(2-bromo-4-(perfluoropropan-2-yl)-6-(trifluoromethyl)phenyl)-3-(N-(cyclopropylmethyl)-4-fluorobenzamido)-2-fluorobenzamide], the mortality at 5 ppm with Chilo suppressalis (setting [2]) is no less than 90%. Besides, the mortality at 0.4 ppm in the test with Plutella xylostella and with Spodoptera litura (setting [3]) was no less than 90% each time. In addition, the mortality at 1 ppm in the test with Mythimna separata was no less than 90%; in test [1], 90%.
`O=C(Nc1c(Br)cc(C(F)(C(F)(F)F)C(F)(F)F)cc1C(F)(F)F)c1cccc(N(CC2CC2)C(=O)c2ccc(C(F)(F)F)cc2)c1F` [Compound 37, N-(2-bromo-4-(perfluoropropan-2-yl)-6-(trifluoromethyl)phenyl)-3-(N-(cyclopropylmethyl)-4-(trifluoromethyl)benzamido)-2-fluorobenzamide]: in the test with Chilo suppressalis (setting [2]), the mortality at 5 ppm was no less than 90%. The mortality at 1 ppm in the test on Plutella xylostella was no less than 90%; in the test with Mythimna separata, no less than 90%; in test [1] it was 90%. Moreover, the mortality at 0.4 ppm in the test with Spodoptera litura (setting [3]) was no less than 90%.
For the compound `O=C(Nc1c(Br)cc(C(F)(C(F)(F)F)C(F)(F)F)cc1C(F)(F)F)c1cccc(N(CC2CC2)C(=O)c2ccc(Cl)cc2)c1F` [Compound 41, N-(2-bromo-4-(perfluoropropan-2-yl)-6-(trifluoromethyl)phenyl)-3-(4-chloro-N-(cyclopropylmethyl)benzamido)-2-fluorobenzamide], the mortality at 5 ppm in the test on Chilo suppressalis (setting [2]) was no less than 90%. For the same compound, the mortality at 0.4 ppm with Plutella xylostella and in the test on Spodoptera litura (setting [3]) was no less than 90% throughout. Also, the figures for the mortality at 1 ppm (in the test on Mythimna separata; in test [1]) were no less than 90% and 90%, respectively.
As for `O=C(Nc1c(Br)cc(C(F)(C(F)(F)F)C(F)(F)F)cc1C(F)(F)F)c1cccc(N(CC2CC2)C(=O)c2ccccc2)c1F` [Compound 4, N-(2-bromo-4-(perfluoropropan-2-yl)-6-(trifluoromethyl)phenyl)-3-(N-(cyclopropylmethyl)benzamido)-2-fluorobenzamide], the mortality at 10 ppm is 92.4% in the test on soybean thrips (setting [7]), 98.3% in the test on soybean thrips (setting [8]) and no less than 90% with Spodoptera litura (3rd day after treatment). Moreover, the mortality at 50 ppm with soybean thrips (setting [7]) turned out to be 97.7%; in the test on soybean thrips (setting [8]), 94.8%. In addition, the results for the “No. of thrips 1 d” value in the test on soybean thrips (dose 10 ppm) and in the test with soybean thrips (dose 50 ppm) were 20 and 6, respectively. Further, the entries for the “No. of thrips 6 d” value in the test with soybean thrips (dose 10 ppm) and in the test with soybean thrips (dose 50 ppm) were 2 and 6, respectively. The mortality at 5 ppm in the test with Chilo suppressalis (setting [2]) was no less than 90%. Also, the mortality at 0.4 ppm was no less than 90% in the test on Plutella xylostella, 20% in the test on Spodoptera litura (setting [4]), 26.7% in the test on Spodoptera litura (setting [5]) and 26.7% with Spodoptera litura (setting [6]). For the same compound, the mortality at 0.04 ppm in the test with Plutella xylostella (setting [4]) is 30%; with Plutella xylostella (setting [5]) it was 80%; in the test on Plutella xylostella (setting [6]), 100%. Also, the mortality at 1 ppm in the test with Spodoptera litura (setting [4]) is 73.3%; in the test on Spodoptera litura (setting [5]), 73.3%; in the test on Spodoptera litura (setting [6]), 73.3%; with Mythimna separata it was no less than 90%; in test [1] it was 90%.
Regarding `O=C(Nc1c(Br)cc(C(F)(C(F)(F)F)C(F)(F)F)cc1C(F)(F)F)c1cccc(N(CC2CC2)C(=O)c2ccc(OC(F)(F)F)cc2)c1F` [Compound 60, N-(2-bromo-4-(perfluoropropan-2-yl)-6-(trifluoromethyl)phenyl)-3-(N-(cyclopropylmethyl)-4-(trifluoromethoxy)benzamido)-2-fluorobenzamide], the mortality at 1 ppm in the test with Plutella xylostella and in the test with Mythimna separata was no less than 90% throughout. Also, in the test on Spodoptera litura (setting [3]), the mortality at 0.4 ppm is no less than 90%. The compound also had a mortality at 10 ppm in test [1] of no less than 90%.
